Data reported in patent US20260132165A1, “MODIFIED NUCLEOSIDE ANALOGUE AND USE THEREOF, AND NUCLEOSIDE ANALOGUE-CONTAINING DOUBLE-STRANDED OLIGONUCLEOTIDE AND USE THEREOF” (RIGERNA THERAPEUTICS (BEIJING) CO., LTD., priority 2023, published 2026).
Strand notation (5' to 3'): a small letter for the sugar, then the base; units joined by * are phosphorothioate-linked, units joined directly phosphodiester-linked; [ ] holds rarer units or linkages, { } end groups; capitals alone tell only the bases. [Uhd] = commercial lipid-conjugated uridine analogue Uhd (C16), from Hongene, reference; {VP} = (thio)vinylphosphonate on the antisense 5' nucleotide, as listed; e = 2'-O-(2-methoxyethyl) (MOE); m = 2'-O-methyl; f = 2'-fluoro

Legend:
[1] = tested on: target gene SOD1; test: Test Example 7: inhibitory activity of lipid conjugated siRNA sequences on SOD1 in mouse adipose and muscle tissues (tail vein injection); assay type: in vivo, C57BL/6j mice; settings: for D 14 % Mean value of inhibition rate / D 28 % Mean value of inhibition rate / D 49 % Mean value of inhibition rate / Kidney D 14 % Mean value of inhibition rate / Kidney D 28 % Mean value of inhibition rate / Kidney D 49 % Mean value of inhibition rate / Liver D 14 % Mean value of inhibition rate / Liver D 28 % Mean value of inhibition rate / Liver D 49 % Mean value of inhibition rate: tail vein injection 5 mg/kg; for D 28 % Mean value of inhibition rate / Kidney D 28 % Mean value of inhibition rate / Liver D 28 % Mean value of inhibition rate: D28; for Kidney D 14 % Mean value of inhibition rate / Kidney D 28 % Mean value of inhibition rate / Kidney D 49 % Mean value of inhibition rate: mouse kidney; for Liver D 14 % Mean value of inhibition rate / Liver D 28 % Mean value of inhibition rate / Liver D 49 % Mean value of inhibition rate: mouse liver
Experimental: (§1) RNA extraction: the above tissue samples were taken out from the RNAlater, and smashed for 60 s in Tissuelyser type II full-automatic tissue homogenizer, and total RNAs of various tissue samples were extracted using the full-automatic nucleic acid extraction instrument and the nucleic acid extraction kit from Zhejiang Hanwei Science and Technology Co. Ltd. according to methods described in instructions.
(§2) Reverse transcription reaction: 1 μg of the extracted total RNAs of the tissue samples were taken, and configured into 20 μL of reverse transcription system according to a method described in kit instructions by using a reverse transcription kit (Reverse Transcription System, A3500) from Promega Corporation and selecting Oligo (dT)15 reverse transcription primers, and the reverse transcription reaction was completed. After the reaction was ended, 80 μL of RNase-Free water was added into the reverse transcription system to provide cDNA solution for Real-time PCR detection.
(§3) Real-time PCR detection: 20 μL of Real-time PCR reaction system per PCR detection well was configured according to a method described in kit instructions using SYBR™ Select Master Mix (Catalog number: 4472908) reagent from ABI company. Each detection system contained 5 μL of cDNA template obtained from the above reverse transcription reaction, 10 μL of SYBR™ Select Master Mix, 0.5 μL of 10 μM upstream primers, 0.5 μL of 10 μM downstream primers, and 4 μL of RNase-Free H2O. The configured reaction system was subjected to Real-time PCR amplification on ABI StepOnePlus PCR instrument by a three-step method, wherein an amplification procedure was pre-denaturation at 95° C. for 10 min, then denaturation at 95° C. for 30 s, annealing at 60° C. for 30 s, and extension at 72° C. for 30 s; and processes of denaturation, annealing, and extension were repeated for 40 cycles. Gene expression differences were calculated by the ΔΔCt method after completion of the procedure.
(§4) In the real-time fluorescence quantitative PCR method, relative quantitative calculation of remaining expression level and inhibition rate of gene mRNA of interest in various test groups was performed by the ΔΔCt method, and the calculation method is as follows:
(§5) The present test example evaluated, by an evaluation method for inhibitory activity on a target gene in mice, the inhibitory activity of siRNA sequence RZ899090 with the sense strand with the NM073 conjugation at Position 4, siRNA sequence RZ899091 with the sense strand with the NM074 conjugation at Position 4, siRNA sequence RZ899078 with the sense strand with the NM202 conjugation at Position 6 and siRNA reference sequence RZ899093 with the sense strand with the Uhd conjugation at Position 4, and siRNA reference sequence RZ899076 with the sense strand with the NM200 conjugation at Position 4 on the target gene SOD1 of interest in mice. The above conjugation vectors were different in that NM073 was C18 aliphatic chain, NM074 was C20 aliphatic chain, and NM0202 and NM0200 were C22 aliphatic chains.
(§6) 6-8 Week-old C57BL/6j mice were randomly grouped by body weight, 15 per group, 6 groups in total. Mice in each group were dosed with the above siRNA conjugates by tail vein injection, with an administration dose of 5 mg/kg per mouse, and an administration volume of 150 μL. PBS control group was administered with the same volume of siRNA conjugate-free PBS solution. The day of administration was recorded as D0, and 5 mice in each group were sacrificed on D14, D28 and D49 after administration. Tissues such as paragonadal fat, left hind leg quadriceps muscle, heart, liver, and kidney were respectively taken and stored in the RNAlater. RNA extraction, reverse transcription, and real-time fluorescence quantitative detection were performed on various tissues according to the above method, and gene expression differences were calculated by the above ΔΔCt method.

[2] = tested on: target gene SOD1; test: Test Example 8: inhibitory activity on target gene SOD1 in adipose tissues in different parts of mice; assay type: in vivo, C57BL/6j mice; settings: D14; for Subcutaneous fat % Mean value of inhibition rate: abdominal subcutaneous fat; for Subcutaneous fat % Mean value of inhibition rate / Brown fat on back % Mean value of inhibition rate / Paragonadal fat % Mean value of inhibition rate: tail vein injection 5 mg/kg
Experimental: as §1, §2, §3, §4
as §5, with “4,” for “4, and”, “SOD1 in adipose tissues” for “SOD1”, “mice.” for “mice. The above conjugation vectors were different in that NM073 was C18 aliphatic chain, NM074 was C20 aliphatic chain, and NM0202 and NM0200 were C22 aliphatic chains.”
as §6, with “weight, 5” for “weight, 15”, “on D14” for “on D14, D28 and D49”, “administration. Paragonadal” for “administration. Tissues such as paragonadal”, “fat, abdominal subcutaneous fat,” for “fat, left hind leg quadriceps muscle, heart, liver,”, “and brown fat on back” for “and kidney”, “respectively taken.” for “respectively taken and stored in the RNAlater.”

[3] = mouse adipose tissues (paragonadal fat), D14
[4] = mouse adipose tissues (paragonadal fat)
[5] = mouse adipose tissues (paragonadal fat), D49
[6] = mouse skeletal muscle tissues (left hind leg quadriceps muscle), D14
[7] = mouse skeletal muscle tissues (left hind leg quadriceps muscle)
[8] = mouse skeletal muscle tissues (left hind leg quadriceps muscle), D49

Substance | D 14 % Mean value of inhibition rate [1, 3] | D 28 % Mean value of inhibition rate [1, 4] | D 49 % Mean value of inhibition rate [1, 5] | D 14 % Mean value of inhibition rate ([1]; mouse heart tissues, D14) | D 28 % Mean value of inhibition rate ([1]; mouse heart tissues) | D 49 % Mean value of inhibition rate ([1]; mouse heart tissues, D49) | Kidney D 14 % Mean value of inhibition rate ([1]; D14) | Kidney D 28 % Mean value of inhibition rate [1] | Kidney D 49 % Mean value of inhibition rate ([1]; D49) | Liver D 14 % Mean value of inhibition rate ([1]; D14) | Liver D 28 % Mean value of inhibition rate [1] | Liver D 49 % Mean value of inhibition rate ([1]; D49) | D 14 % Mean value of inhibition rate [1, 6] | D 28 % Mean value of inhibition rate [1, 7] | D 49 % Mean value of inhibition rate [1, 8] | Subcutaneous fat % Mean value of inhibition rate [2] | Brown fat on back % Mean value of inhibition rate [2] | Paragonadal fat % Mean value of inhibition rate [2] | further results
RZ899091: siRNA sequence with the sense strand with the NM074 (C20) conjugation at Position 4; SEQ ID NO: 16 / 23 (sense UUUNAAUCCUCACUCUAAA; antisense UUUAGAGUGAGGAUUAAAAUG; NM074 (C20) conjugate at sense position 4; modified_base 1..2 OTHER; 2'-methoxy and 5'-thiophosphate modified nucleotides; modified_base 3 OTHER; 2'-methoxy modified nucleotide; modified_base 4 OTHER; n is the synthetic nucleotide analog NM074 as described in the disclosure.; modified_base 5..6 OTHER; 2'-methoxy modified nucleotides; modified_base 7..10 OTHER; 2'-fluoro modified nucleotides; modified_base 11..19 OTHER; 2'-methoxy modified ; modified_base 1 OTHER; 2'-methoxy and 5'-thiovinylphosphonate modified nucleotide; modified_base 2 OTHER; 2'-fluoro and 5'-thiophosphate modified …) | 86.81% | 86.36% | 81.73% | 87.44% | 82.78% | 81.89% | 31.71% | 3.50% | 9.97% | 49.04% | 13.03% | 7.59% | 69.80% | 72.24% | 41.89% | 67.17% | 80.97% | 75.20% | inhibitory action on liver and kidney tissues ([1]; liver and kidney (non-target tissues), tail vein 5 mg/kg, D28 and D49): no inhibitory action; inhibitory activity compared with the NM200 conjugated reference sequence RZ899076 ([1]; mouse adipose tissues, tail vein 5 mg/kg, D14): on par; gene inhibitory effect compared with RZ899076 ([1]; mouse adipose tissues, tail vein 5 mg/kg, D49): superior gene inhibitory effect; inhibitory activity compared with Uhd conjugated reference sequence RZ899093 and NM200 conjugated reference sequence RZ899076 ([1]; mouse heart tissues, tail vein 5 mg/kg, D14, D28 and D49): superior inhibitory activity; inhibitory activity in mouse skeletal muscle tissues ([1]; skeletal muscle, tail vein 5 mg/kg): certain inhibitory activity; inhibitory activity compared with the NM200 conjugated reference sequence RZ899076 ([2]; paragonadal fat and brown fat on back, tail vein 5 mg/kg): equivalent or superior inhibitory activity; inhibitory action on the target gene compared with RZ899076 ([2]; subcutaneous fat, tail vein 5 mg/kg): substantially comparable
RZ899093: siRNA reference sequence with the sense strand with the Uhd (C16) conjugation at Position 4; SEQ ID NO: 13 / 23 (sense mU*mU*mU[Uhd]mAmAfUfCfCfUmCmAmCmUmCmUmAmAmA; antisense {VP}-mU*fU*mUmAmGfAmGmUmGmAmGfGmAfUeUfAmAmAmA*mU*mG) [reference compound] | 88.95% | 81.22% | 81.75% | 57.83% | 60.42% | 44.18% | 42.87% | 19.28% | 18.90% | 48.04% | 13.41% | 13.02% | 68.42% | 64.12% | 44.88% | 85.92% | 77.13% | 76.20% | 
